The source of these data is patent US8580794B2 (AbbVie Inc., priority 2009, dated 2013).

Each structure is given as a SMILES string. A value given as a limit tells only on which side of the number the result lay.

The target in the assay is GST-Bc1-2 (Homo sapiens, UniProt P10415). Put plainly: Time Resolved-Fluorescence Resonance Energy Transfer (TR-FRET) Bcl-2 binding assay with F-Bak peptide probe. Particulars: GST-Bcl-2 1 nM, F-Bak probe 100 nM, Tb-anti-GST 1 nM; '<' = below limit of detection; read-out: TR-FRET Bcl-2 Binding Ki.
Sequence of GST-Bc1-2 (P10415 whole entry): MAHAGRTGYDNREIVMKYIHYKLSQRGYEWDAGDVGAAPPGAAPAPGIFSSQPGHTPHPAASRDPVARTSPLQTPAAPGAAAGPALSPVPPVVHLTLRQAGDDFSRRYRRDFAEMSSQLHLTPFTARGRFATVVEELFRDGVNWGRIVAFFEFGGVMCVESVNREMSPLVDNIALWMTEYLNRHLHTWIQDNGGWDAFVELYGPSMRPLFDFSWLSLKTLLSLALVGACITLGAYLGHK
On to `CC1(C)CCC(CN2CCN(c3ccc(C(=O)NS(=O)(=O)c4ccc(OCC5(F)CCNCC5)c([N+](=O)[O-])c4)c(Oc4cnc5[nH]ccc5c4)c3)CC2)=C(c2ccc(Cl)cc2)C1` [Example 127, 4-(4-{[2-(4-chlorophenyl)-4,4-dimethylcyclohex-1-en-1-yl]methyl}piperazin-1-yl)-N-({4-[(4-fluoropiperidin-4-yl)methoxy]-3-nitrophenyl}sulfonyl)-2-(1H-pyrrolo[2,3-b]pyridin-5-yloxy)benzamide], for which the Ki was below 0.01 nM. Take `CC1(C)CCC(CN2CCN(c3ccc(C(=O)NS(=O)(=O)c4ccc(N[C@H]5CC[C@H](N6CCN(C7CCOCC7)CC6)CC5)c([N+](=O)[O-])c4)c(Oc4cnc5[nH]ccc5c4)c3)CC2)=C(c2ccc(Cl)cc2)C1` [Example 128, Trans-4-(4-{[2-(4-chlorophenyl)-4,4-dimethylcyclohex-1-en-1-yl]methyl}piperazin-1-yl)-N-[(3-nitro-4-{[4-(4-tetrahydro-2H-pyran-4-ylpiperazin-1-yl)cyclohexyl]amino}phenyl)sulfonyl]-2-(1H-pyrrolo[2,3-b]pyridin-5-yloxy)benzamide]: the Ki was below 0.01 nM. Next, `CC1(C)CCC(CN2CCN(c3ccc(C(=O)NS(=O)(=O)c4ccc(OCC5CCN(C(CF)CF)CC5)c([N+](=O)[O-])c4)c(Oc4cnc5[nH]ccc5c4)c3)CC2)=C(c2ccc(Cl)cc2)C1` [Example 129, 4-(4-{[2-(4-chlorophenyl)-4,4-dimethylcyclohex-1-en-1-yl]methyl}piperazin-1-yl)-N-{[4-({1-[2-fluoro-1-(fluoromethyl)ethyl]piperidin-4-yl}methoxy)-3-nitrophenyl]sulfonyl}-2-(1H-pyrrolo[2,3-b]pyridin-5-yloxy)benzamide]: 0.002 nM.

In the case of `CC1(C)CCC(CN2CCN(c3ccc(C(=O)NS(=O)(=O)c4ccc(N[C@@H]5CCN(C6CCOCC6)C5)c([N+](=O)[O-])c4)c(Oc4cnc5[nH]ccc5c4)c3)CC2)=C(c2ccc(Cl)cc2)C1` [Example 130, 4-(4-{[2-(4-chlorophenyl)-4,4-dimethylcyclohex-1-en-1-yl]methyl}piperazin-1-yl)-N-[(3-nitro-4-{[(3R)-1-tetrahydro-2H-pyran-4-ylpyrrolidin-3-yl]amino}phenyl)sulfonyl]-2-(1H-pyrrolo[2,3-b]pyridin-5-yloxy)benzamide], the Ki is below 0.01 nM. Take `CC1(C)CCC(CN2CCN(c3ccc(C(=O)NS(=O)(=O)c4ccc(N[C@@H]5CCN(C6CCOC(C)(C)C6)C5)c([N+](=O)[O-])c4)c(Oc4cnc5[nH]ccc5c4)c3)CC2)=C(c2ccc(Cl)cc2)C1` (stereo partly drawn) [Example 131, 4-(4-{[2-(4-chlorophenyl)-4,4-dimethylcyclohex-1-en-1-yl]methyl}piperazin-1-yl)-N-[(4-{[(3R)-1-(2,2-dimethyltetrahydro-2H-pyran-4-yl)pyrrolidin-3-yl]amino}-3-nitrophenyl)sulfonyl]-2-(1H-pyrrolo[2,3-b]pyridin-5-yloxy)benzamide]: the Ki was below 0.01 nM.

For `CC1(C)CCC(CN2CCN(c3ccc(C(=O)NS(=O)(=O)c4ccc(N[C@H]5CCN(C6CCOCC6)C5)c([N+](=O)[O-])c4)c(Oc4cnc5[nH]ccc5c4)c3)CC2)=C(c2ccc(Cl)cc2)C1` [Example 132, 4-(4-{[2-(4-chlorophenyl)-4,4-dimethylcyclohex-1-en-1-yl]methyl}piperazin-1-yl)-N-[(3-nitro-4-{[(3S)-1-tetrahydro-2H-pyran-4-ylpyrrolidin-3-yl]amino}phenyl)sulfonyl]-2-(1H-pyrrolo[2,3-b]pyridin-5-yloxy)benzamide], the Ki is below 0.01 nM.

As for `CC1(C)CCC(CN2CCN(c3ccc(C(=O)NS(=O)(=O)c4ccc(N[C@H]5CCN(C6CCOC(C)(C)C6)C5)c([N+](=O)[O-])c4)c(Oc4cnc5[nH]ccc5c4)c3)CC2)=C(c2ccc(Cl)cc2)C1` (stereo partly drawn) [Example 133, 4-(4-{[2-(4-chlorophenyl)-4,4-dimethylcyclohex-1-en-1-yl]methyl}piperazin-1-yl)-N-[(4-{[(3S)-1-(2,2-dimethyltetrahydro-2H-pyran-4-yl)pyrrolidin-3-yl]amino}-3-nitrophenyl)sulfonyl]-2-(1H-pyrrolo[2,3-b]pyridin-5-yloxy)benzamide], the Ki was below 0.01 nM. Consider `CN1CCOC(CNc2ccc(S(=O)(=O)NC(=O)c3ccc(N4CCN(CC5=C(c6ccc(Cl)cc6)CC(C)(C)CC5)CC4)cc3Oc3cnc4[nH]ccc4c3)cc2[N+](=O)[O-])C1` (stereo not drawn) [Example 134, 4-(4-{[2-(4-chlorophenyl)-4,4-dimethylcyclohex-1-en-1-yl]methyl}piperazin-1-yl)-N-[(4-{[(4-methylmorpholin-2-yl)methyl]amino}-3-nitrophenyl)sulfonyl]-2-(1H-pyrrolo[2,3-b]pyridin-5-yloxy)benzamide], for which the Ki was below 0.01 nM. For `COCCN1CCOC(CNc2ccc(S(=O)(=O)NC(=O)c3ccc(N4CCN(CC5=C(c6ccc(Cl)cc6)CC(C)(C)CC5)CC4)cc3Oc3cnc4[nH]ccc4c3)cc2[N+](=O)[O-])C1` (stereo not drawn) [Example 135, 4-(4-{[2-(4-chlorophenyl)-4,4-dimethylcyclohex-1-en-1-yl]methyl}piperazin-1-yl)-N-{[4-({[4-(2-methoxyethyl)morpholin-2-yl]methyl}amino)-3-nitrophenyl]sulfonyl}-2-(1H-pyrrolo[2,3-b]pyridin-5-yloxy)benzamide] the value was below 0.01 nM; for `CC(=O)N1CCOC(CNc2ccc(S(=O)(=O)NC(=O)c3ccc(N4CCN(CC5=C(c6ccc(Cl)cc6)CC(C)(C)CC5)CC4)cc3Oc3cnc4[nH]ccc4c3)cc2[N+](=O)[O-])C1` (stereo not drawn) [Example 136, N-[(4-{[(4-acetylmorpholin-2-yl)methyl]amino}-3-nitrophenyl)sulfonyl]-4-(4-{[2-(4-chlorophenyl)-4,4-dimethylcyclohex-1-en-1-yl]methyl}piperazin-1-yl)-2-(1H-pyrrolo[2,3-b]pyridin-5-yloxy)benzamide], below 0.01 nM; for `CC1(C)CCC(CN2CCN(c3ccc(C(=O)NS(=O)(=O)c4ccc(NCC5(F)CCOCC5)c([N+](=O)[O-])c4)c(Oc4cnc5[nH]ccc5c4)c3)CC2)=C(c2ccc(Cl)cc2)C1` [Example 138, 4-(4-{[2-(4-chlorophenyl)-4,4-dimethylcyclohex-1-en-1-yl]methyl}piperazin-1-yl)-N-[(4-{[(4-fluorotetrahydro-2H-pyran-4-yl)methyl]amino}-3-nitrophenyl)sulfonyl]-2-(1H-pyrrolo[2,3-b]pyridin-5-yloxy)benzamide], below 0.01 nM. Next, `CC1(C)CCC(CN2CCN(c3ccc(C(=O)NS(=O)(=O)c4ccc(NC5CCN(C6COC6)CC5)c([N+](=O)[O-])c4)c(Oc4cnc5[nH]ccc5c4)c3)CC2)=C(c2ccc(Cl)cc2)C1` [Example 139, 4-(4-{[2-(4-chlorophenyl)-4,4-dimethylcyclohex-1-en-1-yl]methyl}piperazin-1-yl)-N-({3-nitro-4-[(1-oxetan-3-ylpiperidin-4-yl)amino]phenyl}sulfonyl)-2-(1H-pyrrolo[2,3-b]pyridin-5-yloxy)benzamide]: below 0.01 nM; `CC1(C)CCC(CN2CCN(c3ccc(C(=O)NS(=O)(=O)c4ccc(NC5CCN(C6CCC6)CC5)c([N+](=O)[O-])c4)c(Oc4cnc5[nH]ccc5c4)c3)CC2)=C(c2ccc(Cl)cc2)C1` [Example 140, 4-(4-{[2-(4-chlorophenyl)-4,4-dimethylcyclohex-1-en-1-yl]methyl}piperazin-1-yl)-N-({4-[(1-cyclobutylpiperidin-4-yl)amino]-3-nitrophenyl}sulfonyl)-2-(1H-pyrrolo[2,3-b]pyridin-5-yloxy)benzamide]: below 0.01 nM. As to `CC1(C)CCC(CN2CCN(c3ccc(C(=O)NS(=O)(=O)c4ccc(NC5CCN(C6CCOC(C)(C)C6)CC5)c([N+](=O)[O-])c4)c(Oc4cnc5[nH]ccc5c4)c3)CC2)=C(c2ccc(Cl)cc2)C1` (stereo not drawn) [Example 141, 4-(4-{[2-(4-chlorophenyl)-4,4-dimethylcyclohex-1-en-1-yl]methyl}piperazin-1-yl)-N-[(4-{[1-(2,2-dimethyltetrahydro-2H-pyran-4-yl)piperidin-4-yl]amino}-3-nitrophenyl)sulfonyl]-2-(1H-pyrrolo[2,3-b]pyridin-5-yloxy)benzamide], the Ki was below 0.01 nM. For `CC1(C)CCC(CN2CCN(c3ccc(C(=O)NS(=O)(=O)c4ccc(N[C@H]5CCN(C6CC6)C5)c([N+](=O)[O-])c4)c(Oc4cnc5[nH]ccc5c4)c3)CC2)=C(c2ccc(Cl)cc2)C1` [Example 142, 4-(4-{[2-(4-chlorophenyl)-4,4-dimethylcyclohex-1-en-1-yl]methyl}piperazin-1-yl)-N-[(4-{[(3S)-1-cyclopropylpyrrolidin-3-yl]amino}-3-nitrophenyl)sulfonyl]-2-(1H-pyrrolo[2,3-b]pyridin-5-yloxy)benzamide], the Ki is 0.13 nM. For `CC1(C)CCC(CN2CCN(c3ccc(C(=O)NS(=O)(=O)c4ccc(NC5CCN(C6CCOC6)CC5)c([N+](=O)[O-])c4)c(Oc4cnc5[nH]ccc5c4)c3)CC2)=C(c2ccc(Cl)cc2)C1` (stereo not drawn) [Example 143, 4-(4-{[2-(4-chlorophenyl)-4,4-dimethylcyclohex-1-en-1-yl]methyl}piperazin-1-yl)-N-({3-nitro-4-[(1-tetrahydrofuran-3-ylpiperidin-4-yl)amino]phenyl}sulfonyl)-2-(1H-pyrrolo[2,3-b]pyridin-5-yloxy)benzamide], the Ki is below 0.01 nM. As for `CC1(C)CCC(CN2CCN(c3ccc(C(=O)NS(=O)(=O)c4ccc(N[C@@H]5CCN(C6CC6)C5)c([N+](=O)[O-])c4)c(Oc4cnc5[nH]ccc5c4)c3)CC2)=C(c2ccc(Cl)cc2)C1` [Example 144, 4-(4-{[2-(4-chlorophenyl)-4,4-dimethylcyclohex-1-en-1-yl]methyl}piperazin-1-yl)-N-[(4-{[(3R)-1-cyclopropylpyrrolidin-3-yl]amino}-3-nitrophenyl)sulfonyl]-2-(1H-pyrrolo[2,3-b]pyridin-5-yloxy)benzamide], the Ki was below 0.01 nM. Next, `CC1(C)CCC(CN2CCN(c3ccc(C(=O)NS(=O)(=O)c4ccc(NC[C@@H]5CCN(C6CCOCC6)C5)c([N+](=O)[O-])c4)c(Oc4cnc5[nH]ccc5c4)c3)CC2)=C(c2ccc(Cl)cc2)C1` [Example 145, 4-(4-{[2-(4-chlorophenyl)-4,4-dimethylcyclohex-1-en-1-yl]methyl}piperazin-1-yl)-N-{[3-nitro-4-({[(3S)-1-tetrahydro-2H-pyran-4-ylpyrrolidin-3-yl]methyl}amino)phenyl]sulfonyl}-2-(1H-pyrrolo[2,3-b]pyridin-5-yloxy)benzamide]: below 0.01 nM.
